Laboratory results from ChEMBL document CHEMBL3885881, “DrugMatrix”.

Species on record: Rattus norvegicus
Assay: DrugMatrix - Regimen: Daily Repeat
Format: toxicity, organism-based, Sprague-Dawley
Parameters: regimen Daily Repeat, gender Male, age 6-8 weeks
Conditions: in vivo, po, route oral GAVAGE, […]; for ABSOLUTE BASOPHIL / ABSOLUTE EOSINOPHIL / ABSOLUTE LYMPHOCYTE / ABSOLUTE MONOCYTE / ABSOLUTE SEGMENTED NEUTROPHIL / BASOPHIL / EOSINOPHIL / ERYTHROCYTE COUNT / HEMATOCRIT / HEMOGLOBIN / LEUKOCYTE COUNT / LYMPHOCYTE / MEAN CORPUSCULAR HEMOGLOBIN / MEAN CORPUSCULAR HEMOGLOBIN CONCENTRATION / MEAN CORPUSCULAR VOLUME / MONOCYTE / NEUTROPHIL / NUCLEATED RED BLOOD CELLS / PLATELET COUNT: tissue Blood; for ALANINE AMINOTRANSFERASE / ALBUMIN / ALKALINE PHOSPHATASE / ASPARTATE AMINOTRANSFERASE / BLOOD UREA NITROGEN / CARBON DIOXIDE / CHLORIDE / CHOLESTEROL / CREATINE PHOSPHOKINASE / CREATININE / GLUCOSE / LACTATE DEHYDROGENASE / LIPASE / PHOSPHORUS / POTASSIUM / SODIUM / TOTAL BILIRUBIN / TOTAL PROTEIN / URIC ACID: tissue Plasma
[1] = 0 mg/kg, 72 h, dose level Control, time 3 day
[2] = 0 mg/kg, 120 h, dose level Control, time 5 day
[3] = 10 mg/kg, 72 h, dose level Low, time 3 day

## COCCOC(=O)C1=C(C)NC(C)=C(C(=O)OC(C)C)C1c1cccc([N+](=O)[O-])c1 (centres undefined) [NIMODIPINE]
[1]
  ABSOLUTE BASOPHIL: 0 CELLS/uL
  ABSOLUTE EOSINOPHIL: 0 CELLS/uL
  ABSOLUTE LYMPHOCYTE: 9244.83 CELLS/uL
  ABSOLUTE MONOCYTE: 102 CELLS/uL
  ABSOLUTE SEGMENTED NEUTROPHIL: 869.83 CELLS/uL
  BASOPHIL: 0%
  EOSINOPHIL: 0%
  ERYTHROCYTE COUNT: 5.43 x10E6/uL
  HEMATOCRIT: 34.03%
  HEMOGLOBIN: 13.27 G/DL
  LEUKOCYTE COUNT: 10.22 x10E3/uL
  LYMPHOCYTE: 90.33%
  MEAN CORPUSCULAR HEMOGLOBIN: 24.48 pg
  MEAN CORPUSCULAR HEMOGLOBIN CONCENTRATION: 39.03 G/DL
  MEAN CORPUSCULAR VOLUME: 62.75 fL
  MONOCYTE: 1%
  NEUTROPHIL: 8.67%
  NUCLEATED RED BLOOD CELLS: 0.17 /100WBC
  PLATELET COUNT: 989 x10E3/uL
  ALANINE AMINOTRANSFERASE: 77 u/L
  ALBUMIN: 3.97 G/DL
  ALKALINE PHOSPHATASE: 464.83 u/L
  ASPARTATE AMINOTRANSFERASE: 89.83 u/L
  BLOOD UREA NITROGEN: 12.17 mg/dL
  CARBON DIOXIDE: 34.17 mmol/L
  CHLORIDE: 98.33 MEQ/L
  CHOLESTEROL: 75.17 mg/dL
  CREATINE PHOSPHOKINASE: 367.67 u/L
  CREATININE: 0.16 mg/dL
  GLUCOSE: 142.67 mg/dL
  LACTATE DEHYDROGENASE: 139.33 u/L
  LIPASE: 9.5 u/L
  PHOSPHORUS: 10.85 mg/dL
  POTASSIUM: 6.38 MEQ/L
  SODIUM: 143.2 MEQ/L
  TOTAL BILIRUBIN: 0.2 mg/dL
  TOTAL PROTEIN: 5.77 G/DL
  URIC ACID: 0.7 mg/dL
[2]
  ABSOLUTE BASOPHIL: 0 CELLS/uL
  ABSOLUTE EOSINOPHIL: 0 CELLS/uL
  ABSOLUTE LYMPHOCYTE: 8295.33 CELLS/uL
  ABSOLUTE MONOCYTE: 84.67 CELLS/uL
  ABSOLUTE SEGMENTED NEUTROPHIL: 970 CELLS/uL
  BASOPHIL: 0%
  EOSINOPHIL: 0%
  ERYTHROCYTE COUNT: 5.74 x10E6/uL
  HEMATOCRIT: 36.22%
  HEMOGLOBIN: 13.85 G/DL
  LEUKOCYTE COUNT: 9.35 x10E3/uL
  LYMPHOCYTE: 88.67%
  MEAN CORPUSCULAR HEMOGLOBIN: 24.13 pg
  MEAN CORPUSCULAR HEMOGLOBIN CONCENTRATION: 38.25 G/DL
  MEAN CORPUSCULAR VOLUME: 63.08 fL
  MONOCYTE: 1%
  NEUTROPHIL: 10.33%
  NUCLEATED RED BLOOD CELLS: 0.17 /100WBC
  PLATELET COUNT: 883.83 x10E3/uL
  ALANINE AMINOTRANSFERASE: 64.5 u/L
  ALBUMIN: 4.12 G/DL
  ALKALINE PHOSPHATASE: 425.67 u/L
  ASPARTATE AMINOTRANSFERASE: 88.5 u/L
  BLOOD UREA NITROGEN: 14.17 mg/dL
  CARBON DIOXIDE: 30.5 mmol/L
  CHLORIDE: 100.33 MEQ/L
  CHOLESTEROL: 55.33 mg/dL
  CREATINE PHOSPHOKINASE: 287.17 u/L
  CREATININE: 0.2 mg/dL
  GLUCOSE: 162.83 mg/dL
  LACTATE DEHYDROGENASE: 111.33 u/L
  LIPASE: 10.5 u/L
  PHOSPHORUS: 10.32 mg/dL
  POTASSIUM: 5.13 MEQ/L
  SODIUM: 143.93 MEQ/L
  TOTAL BILIRUBIN: 0.17 mg/dL
  TOTAL PROTEIN: 5.9 G/DL
  URIC ACID: 0.77 mg/dL
[3]
  ABSOLUTE BASOPHIL: 0 CELLS/uL
  ABSOLUTE EOSINOPHIL: 0 CELLS/uL
  ABSOLUTE LYMPHOCYTE: 10257 CELLS/uL
  ABSOLUTE MONOCYTE: 34.33 CELLS/uL
  ABSOLUTE SEGMENTED NEUTROPHIL: 975.33 CELLS/uL
  BASOPHIL: 0%
  EOSINOPHIL: 0%
  ERYTHROCYTE COUNT: 5.25 x10E6/uL
  HEMATOCRIT: 33.27%
  HEMOGLOBIN: 13.03 G/DL
  LEUKOCYTE COUNT: 11.27 x10E3/uL
  LYMPHOCYTE: 92%
  MEAN CORPUSCULAR HEMOGLOBIN: 24.83 pg
  MEAN CORPUSCULAR HEMOGLOBIN CONCENTRATION: 39.2 G/DL
  MEAN CORPUSCULAR VOLUME: 63.37 fL
  MONOCYTE: 0.33%
  NEUTROPHIL: 7.67%
  NUCLEATED RED BLOOD CELLS: 0 /100WBC
  PLATELET COUNT: 1138 x10E3/uL
  ALANINE AMINOTRANSFERASE: 72.67 u/L
  ALBUMIN: 3.87 G/DL
  ALKALINE PHOSPHATASE: 445.67 u/L
  ASPARTATE AMINOTRANSFERASE: 88 u/L
  BLOOD UREA NITROGEN: 12 mg/dL
  CARBON DIOXIDE: 33 mmol/L
  CHLORIDE: 99 MEQ/L
  CHOLESTEROL: 69.67 mg/dL
  CREATINE PHOSPHOKINASE: 468 u/L
  CREATININE: 0.2 mg/dL
  GLUCOSE: 153.33 mg/dL
  LACTATE DEHYDROGENASE: 135.67 u/L
  LIPASE: 10.67 u/L
  PHOSPHORUS: 11.03 mg/dL
  POTASSIUM: 6.2 MEQ/L
  SODIUM: 144.23 MEQ/L
  TOTAL BILIRUBIN: 0.17 mg/dL
  TOTAL PROTEIN: 5.57 G/DL
  URIC ACID: 0.7 mg/dL
